Format in all cases: in vivo
The subject of assay [1] is Myzus persicae (green peach aphid). Briefly: Example B5: Myzus persicae feeding/residual contact, preventive, mixed population (sunflower leaf discs). As to conditions: foliar, 144 h, mixed population on sprayed sunflower leaf discs, 6 DAT, read-out: activity (mortality, special effects). How it is done: Example B5: Activity Against Myzus persicae (Green Peach Aphid)
(Feeding/Residual Contact Activity, Preventive), Mixed Population
Sunflower leaf discs were placed on agar in a 24-well microtiter plate and sprayed with test solutions. After drying, the leaf discs were infested with an aphid population of mixed ages. After an incubation period of 6 DAT, samples were checked for mortality and special effects (e.g. phytotoxicity).

Assay [2] relates to Bemisia tabaci (cotton white fly). Briefly: Example B9: Bemisia tabaci adulticide contact activity, preventative. As to conditions: foliar, 168 h, adult white flies on sprayed cotton leaf discs, 7 DAT, read-out: activity (mortality, special effects). The procedure:
Example B9: Activity Against Bemisia tabaci (Cotton White Fly)
(Adulticide Contact Activity, Preventative), Adult
Cotton leaf discs were placed on agar in a 24-well microtiter plate and sprayed with test solutions. After drying, the leaf discs were infested with adult white flies. After an incubation period of 7 DAT, samples were checked for mortality and special effects (e.g. phytotoxicity).

Assay [3] relates to Spodoptera littoralis (Egyptian cotton leaf worm). Briefly: Example B1: Spodoptera littoralis larvicide, feeding/residual contact, preventive (cotton leaf discs). As to conditions: foliar, 72 h, L1 larvae on sprayed cotton leaf discs, 3 days after treatment, read-out: activity (mortality, repellent effect, feeding behaviour, growth regulation). From the text:
Example B1: Activity Against Spodoptera littoralis (Egyptian Cotton Leaf Worm)
Larvicide, Feeding/Residual Contact Activity, Preventive
Cotton leaf discs were placed on agar in a 24-well microtiter plate and sprayed with test solutions.
After drying, the leaf discs were infested with 5 L1 larvae. The samples were checked for mortality, repellent effect, feeding behaviour, and growth regulation 3 days after treatment (DAT).

Assay [4] deals with Plutella xylostella (diamond back moth). Briefly: Example B3: Plutella xylostella larvicide, feeding/residual contact, preventive (artificial diet). As to conditions: 120 h, L2 larvae on artificial diet, 5 days incubation, read-out: activity (larval mortality, antifeedant, growth regulation). How it is done:
Example B3: Activity Against Plutella xylostella (Diamond Back Moth)
(Larvicide, Feeding/Residual Contact Activity, Preventive)
24-well microtiter plate (MTP) with artificial diet was treated with test solutions by pipetting. After drying, the MTPs were infested with L2 larvae (10-15 per well). After an incubation period of 5 days, samples were checked for larval mortality, antifeedant and growth regulation.

Assay [5] deals with Diabrotica balteata (corn root worm). The experiment in a line: Example B4: Diabrotica balteata larvae L2 on maize sprouts, feeding/contact, preventative. As to conditions: 120 h, L2 larvae on sprayed maize sprouts, 5 days incubation, read-out: activity (larval mortality, growth regulation). The procedure:
Example B4: Activity Against Diabrotica Balteata (Corn Root Worm)
(Larvae L2 on Maize Sprouts, Feeding/Contact, Preventative)
Maize sprouts, placed on an agar layer in 24 well micro titer plates were treated with test solutions by spraying. After drying, the MTPs were infested with L2 larvae (6-10 per well). After an incubation period of 5 days, samples were checked for larval mortality and growth regulation.

Assay [6] concerns Thrips tabaci (onion thrips). The experiment in a line: Example B8: Thrips tabaci mixed population, feeding/residual contact, preventive. As to conditions: foliar, 168 h, mixed population on sprayed sunflower leaf discs, 7 days incubation, read-out: activity (mortality, special effects). The procedure: Example B8: Activity Against Thrips tabaci (Onion Thrips)
(Mixed Population, Feeding/Residual Contact Activity, Preventive)
Sunflower leaf discs were placed on agar in a 24-well microtiter plate and sprayed with test solutions. After drying, the leaf discs were infested with a thrips population of mixed ages. After an incubation period of 7 days, samples were checked for mortality and special effects (e.g. phytotoxicity).

Assay [7] concerns Myzus persicae (green peach aphid). Briefly: Example B6: Myzus persicae feeding activity sachet test, mixed population. As to conditions: 120 h, sachet test in sucrose solution, 5 days after infestation. From the text: Example B6: Activity Against Myzus persicae (Green Peach Aphid)
(Feeding Activity Sachet Test), Mixed Population
Test compounds were applied by pipette into 24 well plates and mixed with Sucrose solution. The plates were closed with a stretched Parafilm. A plastic stencil with 24 holes is placed onto the plate and infested pea seedlings were placed directly on the Parafilm. The infested plate is closed with a gel blotting paper and another plastic stencil and then turned upside down. 5 days after infestation the samples were checked on mortality. Application rate: 12.5 ppm.

The test system is the same in assay [8]. Briefly: Example B7: Myzus persicae systemic/feeding activity, curative, mixed population (pea seedlings). As to conditions: 144 h, roots of infested pea seedlings in test solution, 6 days after introduction, read-out: activity (mortality, special effects on the plant). From the text:
Example B7: Activity Against Myzus persicae (Green Peach Aphid)
(Systemic/Feeding Activity, Curative), Mixed Population
Roots of pea seedlings, infested with an aphid population of mixed ages, were placed directly in the test solutions. 6 days after introduction, samples were checked for mortality and special effects on the plant.

Assay [9] relates to Spodoptera littoralis (Egyptian cotton leaf worm). The experiment in a line: Example B2: Spodoptera littoralis systemic activity (lettuce on agar). As to conditions: 120 h, systemic via lettuce roots, 5 days after infestation, read-out: activity (mortality, repellent effect, feeding behavior, growth regulation). From the text:
Example B2: Activity Against Spodoptera littoralis (Egyptian Cotton Leaf Worm)
Test compounds were applied by pipette into 24 well plates and mixed with agar. Lettuce seeds were placed on the agar and the multi well plate is closed by another plate which contains also agar. After 7 days the roots have absorbed the compound and the lettuce has grown into the lid plate. The lettuce leaves were now cut off into the lid plate. Spodoptera eggs were pipetted through a plastic stencil on a humid gel blotting paper and the plate closed with it. The samples are checked for mortality, repellent effect, feeding behavior, and growth regulation 5 days after infestation.

For assay [10], the system named is Tetranychus urticae (two-spotted spider mite). The experiment in a line: Example B12: Tetranychus urticae mixed population on bean leaf discs. As to conditions: foliar, 192 h, mixed population (mobile stages) on sprayed bean leaf discs, 8 days after infestation. The procedure:
Example B12: Activity Against Tetranychus urticae (Two-Spotted Spider Mite)
Bean leaf discs on agar in 24-well microtiter plates were sprayed with aqueous test solutions prepared from 10′000 ppm DMSO stock solutions. After drying the leaf discs were infested with a mite population of mixed ages. The samples were assessed for mortality on mixed population (mobile stages) 8 days after infestation.

Molecules are shown by their SMILES.

On to `CCSc1cc(C(F)(F)F)cnc1-c1nnc(-c2cc(C(F)(F)F)ccn2)n1C` [Compound P1, 3-ethylsulfanyl-2-[4-methyl-5-[4-(trifluoromethyl)-2-pyridyl]-1,2,4-triazol-3-yl]-5-(trifluoromethyl)pyridine], for which the mortality at 400 ppm in assay [1], in assay [2], in assay [3], in assay [4], in assay [5] and in assay [6] was over 80% each time.
As to `CCS(=O)(=O)c1cc(C(F)(F)F)cnc1-c1nnc(-c2cc(C(F)(F)F)ccn2)n1C` [Compound P2, 3-ethylsulfonyl-2-[4-methyl-5-[4-(trifluoromethyl)-2-pyridyl]-1,2,4-triazol-3-yl]-5-(trifluoromethyl)pyridine], the mortality at 400 ppm in assay [1], in assay [2], in assay [3], in assay [4], in assay [5] and in assay [6] was over 80% in each case. Also, the mortality at 12.5 ppm in assay [7] and in assay [9] was at least 80% throughout. Further, the mortality at 24 ppm in assay [8] is at least 80%.
On to `CCS(=O)(=O)c1cc(C(F)(F)F)cnc1-c1nnc(-c2ccc(C(F)(F)F)cc2)n1C` [Compound P5], for which the mortality at 400 ppm in [3], in assay [4] and in assay [5] was over 80% in each case. In addition, the mortality at 12.5 ppm in [9] is at least 80%.
Regarding `CCS(=O)(=O)c1cc(C(F)(F)F)cnc1-c1nnc(-c2cccc(C(F)(F)F)c2)n1C` [Compound P7], the mortality at 400 ppm in [1], in assay [2], in assay [3], in [4] and in assay [5] was over 80% throughout. For the same molecule, the mortality at 12.5 ppm in assay [7] and in assay [9] was at least 80% throughout. Besides, the mortality at 24 ppm in assay [8] is at least 80%.
As to `CCS(=O)(=O)c1cc(C(F)(F)F)cnc1-c1nnc(-c2ccnc(C(F)(F)F)c2)n1C` [Compound P8], the mortality at 400 ppm in [1] and in assay [2] was over 80% in each case. For the same molecule, in assay [8], the mortality at 24 ppm was at least 80%.
Consider `CCS(=O)(=O)c1cc(C(F)(F)F)cnc1-c1nnc(-c2ccccc2)n1C` [Compound P11], for which the mortality at 400 ppm in assay [5] is over 80%; in assay [10] it was at least 80%.
As for `CCS(=O)(=O)c1cc(C(F)(F)F)cnc1-c1nnc(-c2ccc(F)c(Cl)c2)n1C` [Compound P15], the mortality at 400 ppm in [1], in assay [3] and in [5] was over 80% throughout. For the same molecule, the mortality at 12.5 ppm in assay [7] is at least 80%.
`CCS(=O)(=O)c1cc(C(F)(F)F)cnc1-c1nnc(-c2cccc(OC(F)(F)F)c2)n1C` [Compound P20]: the mortality at 400 ppm in assay [1], in assay [3] and in [5] was over 80% each time. For the same molecule, the mortality at 12.5 ppm in assay [7] is at least 80%.
As to `CCS(=O)(=O)c1cc(C(F)(F)F)cnc1-c1nnc(-c2ccc(Cl)c(F)c2)n1C` [Compound P22], the mortality at 400 ppm in assay [1], in assay [3] and in assay [5] was over 80% in each case. Moreover, in [7], the mortality at 12.5 ppm was at least 80%.
On to `CCS(=O)(=O)c1cc(C(F)(F)F)cnc1-c1nnc(-c2cccc(C(F)(F)Cl)c2)n1C` [Compound P24], for which the mortality at 400 ppm in assay [1], in [3], in assay [4] and in assay [5] was over 80% each time. This molecule yielded a mortality at 12.5 ppm in assay [7] of at least 80%.
Regarding `CCS(=O)(=O)c1cc(C(F)(F)F)cnc1-c1nnc(-c2cccc3c2OC(F)(F)O3)n1C` [Compound P30], in assay [1], the mortality at 400 ppm was over 80%. This molecule registered a mortality at 12.5 ppm in [7] of at least 80%.
`CCS(=O)(=O)c1cc(C(F)(F)F)cnc1-c1nnc(-c2ccc(OC(F)(F)F)cc2)n1C` [Compound P33]: the mortality at 400 ppm in assay [1], in assay [3] and in assay [4] was over 80% throughout. Moreover, the mortality at 12.5 ppm in [7] and in assay [9] was at least 80% throughout.
Regarding `CCSc1cc(OC(F)F)cnc1-c1nnc(-c2ccc(C(F)(F)F)nc2)n1C` [Compound P57], in assay [10], the mortality at 400 ppm is at least 80%.
For `CCS(=O)(=O)c1cc(OC(F)F)cnc1-c1nnc(-c2ccc(C(F)(F)F)nc2)n1C` [Compound P58], the mortality at 400 ppm in [1] and in [2] was over 80% in each case. Moreover, the mortality at 24 ppm in assay [8] is at least 80%.
Turning to `CCSc1cc(C(F)(F)F)ccc1-c1nnc(-c2cc(C(F)(F)F)ccn2)n1C` [Compound P59], the mortality at 400 ppm in assay [1], in assay [2], in [3], in assay [4], in [5] and in assay [6] was over 80% in each case.
For the molecule `CCS(=O)(=O)c1cc(C(F)(F)F)ccc1-c1nnc(-c2cc(C(F)(F)F)ccn2)n1C` [Compound P60], the mortality at 400 ppm in assay [1], in [2], in assay [3], in [4], in assay [5] and in assay [6] was over 80% throughout. The mortality at 24 ppm in assay [8] was at least 80%. In addition, the mortality at 12.5 ppm in assay [9] was at least 80%.
Consider `CCn1c(-c2cc(C(F)(F)F)ccn2)nnc1-c1ncc(C(F)(F)F)cc1S(=O)(=O)CC` [Compound P65], for which the mortality at 400 ppm in assay [3], in [5] and in assay [6] was over 80% each time. In assay [9], the mortality at 12.5 ppm is at least 80%.
Regarding `CCS(=O)(=O)c1cc(OC(F)F)cnc1-c1nnc(-c2cc(C(F)(F)F)ccn2)n1C` [Compound P66], the mortality at 400 ppm in assay [1], in [3], in assay [4] and in [5] was over 80% in each case. Moreover, the mortality at 24 ppm in [8] is at least 80%. In assay [9], the mortality at 12.5 ppm is at least 80%.
`Cn1c(-c2cc(C(F)(F)F)ccn2)nnc1-c1ncc(C(F)(F)F)cc1S(=O)(=O)CC1CC1` [Compound P72]: the mortality at 400 ppm in assay [4] and in assay [6] was over 80% throughout.
For `Cn1c(-c2cc(C(F)(F)F)ccn2)nnc1-c1ncc(C(F)(F)F)cc1SCC1CC1` [Compound P76], the mortality at 400 ppm in assay [4], in assay [5] and in assay [6] was over 80% throughout.
